Laboratory results as given in paper PMC3593989 (Biochimica et biophysica acta, 2013).

What was measured:
[1] = target: T1, acyl-CoA synthetase 4 (Acsl4) (Rattus norvegicus, UniProt O35547); assay type: biochemical
[2] = target: T1, acyl-CoA synthetase 4 (Acsl4); assay type: biochemical; remark: listed apart in the source

T1 sequence (O35547 whole entry): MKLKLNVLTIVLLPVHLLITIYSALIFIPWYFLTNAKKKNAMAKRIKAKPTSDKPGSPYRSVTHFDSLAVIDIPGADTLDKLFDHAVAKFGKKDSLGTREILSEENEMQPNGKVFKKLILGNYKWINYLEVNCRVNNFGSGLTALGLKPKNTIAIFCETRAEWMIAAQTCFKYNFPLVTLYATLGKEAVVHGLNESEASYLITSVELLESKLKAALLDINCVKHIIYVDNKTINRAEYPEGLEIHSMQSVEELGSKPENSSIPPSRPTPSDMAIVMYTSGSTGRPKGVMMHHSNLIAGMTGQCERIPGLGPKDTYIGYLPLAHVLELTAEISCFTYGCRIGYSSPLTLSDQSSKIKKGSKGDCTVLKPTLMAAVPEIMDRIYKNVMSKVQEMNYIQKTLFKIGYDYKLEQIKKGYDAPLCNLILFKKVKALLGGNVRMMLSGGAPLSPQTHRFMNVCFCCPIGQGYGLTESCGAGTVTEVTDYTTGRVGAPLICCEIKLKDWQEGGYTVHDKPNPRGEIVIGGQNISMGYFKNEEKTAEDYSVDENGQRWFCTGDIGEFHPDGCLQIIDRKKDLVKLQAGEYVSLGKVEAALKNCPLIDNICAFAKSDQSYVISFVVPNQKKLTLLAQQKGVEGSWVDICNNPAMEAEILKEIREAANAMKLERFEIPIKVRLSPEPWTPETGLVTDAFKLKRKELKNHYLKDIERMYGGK

Row | Ki [1] | SMILES | Km [2]
1 | 11.4 ± 1.28 mM | CCCC(C(=O)O)C(C)C (racemic) [PIA, 2-isopropylpentanoic acid] | 
2 |  | CCCCC/C=C\C/C=C\C/C=C\C/C=C\CCCC(=O)O [AA, arachidonic acid] | 4.12 ± 0.56 µM
